Laboratory results: PubChem BioAssay (NCI)
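A five-concentration, 48-hour dose response in 96-well plates underlies each endpoint, interpolated linearly between surrounding concentrations. TGI denotes the concentration required for complete inhibition of growth.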

How the values were obtained:
Experiment in all cases: inhibition of tumour cell growth, NCI panel, 48 h
[1] = tested on: TK-10 renal
[2] = tested on: MCF7 breast
[3] = tested on: A498 renal
[4] = tested on: MOLT-4 leukemia
[5] = tested on: ACHN renal
[6] = tested on: LOX IMVI melanoma
[7] = tested on: HCT-15 colon
[8] = tested on: SK-MEL-5 melanoma
[9] = tested on: SK-MEL-28 melanoma
[10] = tested on: MALME-3M melanoma
[11] = tested on: OVCAR-4 ovarian
[12] = tested on: K-562 leukemia

SMILES	TGI [1] [µM]	TGI [2] [µM]	TGI [3] [µM]	TGI [4] [µM]	TGI [5] [µM]	TGI [6] [µM]	TGI [7] [µM]	TGI [8] [µM]	TGI [9] [µM]	TGI [10] [µM]	TGI [11] [µM]	TGI [12] [µM]
CN1CCN(Cc2ccccc2)CC1CC#N (stereo not given)	> 100	> 100	> 100	> 100	> 100	> 100	> 100	> 100	> 100	> 100	> 100	> 100
NC(=O)NC(=O)c1cccc(NC(=O)CCl)c1	6.76	9.32	6.39	15.4	12.9	2.17	9.73	2.07	> 62.2	> 48.1	25.7	> 43.4
COc1ccc(C2=NN(C(=O)c3ccc(Cl)cc3)C(O)(c3cc(F)c(Cl)cc3Cl)C2)cc1 (stereo not given)	> 100	> 100	> 100	> 100	> 100	> 100	> 100	> 100	> 100	> 100	> 100	> 100
c1ccc(COC[C@H]2C3OCC([C@H](OCc4ccccc4)[C@H]3OCc3ccccc3)N2Cc2ccccc2)cc1 (stereo not given in full)	> 100	> 100	> 100	> 51.7	> 100	> 100	> 100	> 100	> 100	> 100	> 100	> 83
CC1N=C(c2ccccc2)OC1=O (stereo not given)	> 100	> 100	> 100	> 100	> 100	> 100	> 100	> 100	> 100	> 100	> 100	> 100
COc1cccc(CCn2c(N)c(C#N)c3ccc([N+](=O)[O-])cc3c2=O)c1	> 46.4	> 31.6	> 100	> 31.6	> 46.4	> 46.4	> 31.6	> 100	> 100	> 31.6	> 100	11.6
CCN1C/C(=C\c2ccc(Cl)cc2)c2[nH]c(=O)c(C#N)c(-c3ccc(Cl)cc3)c2C1	> 100	> 100	> 100	> 100	> 100	> 100	> 100	> 100	> 100	> 100	> 100	> 100
C[C@]12CC[C@H](O)CC1=CC[C@@H]1[C@@H]2CC[C@]2(C)NC(=O)/C(=C\c3ccccc3)C[C@@H]12	83.2	47.3	29.2	98.5	43.1	42.5	37.8	25.7	32	30.3	60.8	> 100
CCOC(=O)C1=NNC(C(=O)c2ccccc2)C1c1ccccc1 (stereo not given)	6.42	5.82	> 100	> 34.8	3.71	10.6	5.94	5.78	3.67	4.77	> 38.3	> 100
COC(=O)c1cc2c(cc1C(=O)OC)[C@@]1(C)CCCC(C)(C)C1CC2 (stereo not given in full)	39	32.7	32.4	> 100	36.4	36	35.3	35.4	> 100	15.3	> 100	76.1
